The source of these data is publication PMC8066339, “Optimization of 2-Acylaminocycloalkylthiophene Derivatives for Activity against Staphylococcus aureus RnpA” (Antibiotics, 2021).

The subject of data set [1] is Human liver epithelial cells (HEP G2). The data set is described as follows: MTT cytotoxicity testing. The following applies: for HEP G2 toxicity against 70% viability cut-off (in words): concentrations lower than 50 µM. How it is done:
(§1) For the scaffold to have translational significance, it must be non-toxic to human cells. Accordingly, an initial assessment of toxicity was performed using human liver epithelial (HEP G2) cells via a 3-(4,5-dimethylthiazol-2-yl)-2,5-diphenyltetrazolium bromide (MTT) assay in the presence of up to 400 µM of each analog. […] Viability of 70% was used as the cut-off criteria for toxicity (Figure 4, dashed line), according to ISO guidelines, as described in Materials and Methods.
(§2) Human liver epithelial cells (HEP G2) were cultured in Dulbecco’s Modified Eagle Medium (DMEM; Fisher Scientific, Hampton, NH) supplemented with 10% heat inactivated fetal bovine serum (FBS; Corning Life Sciences) and 1% penicillin/streptomycin (Thermofisher Scientific). Cells were incubated at 37 °C with 5% CO2 in Nunc (Roskilde, Denmark) tissue culture flasks. Cells were grown in monolayers until exceeding 70% confluency, removed with 0.25% trypsin (Fisher Scientific), resuspended in fresh medium, and used to seed approximately 2.5 × 10^5 cells/mL into each well of a 96 well tissue culture microplate (Nunc) containing 200 µL of fresh medium. Cytotoxicity testing was conducted according to the guidelines of the International Organization for Standardization (ISO) 10993-5:2009. After 24 h of incubation, the cell media was removed, and adherent cells were washed with 1× phosphate buffered saline (PBS). Cell media was supplemented with 5% per volume of compound at final concentrations from 12.5 µM to 400 µM and incubated 20–24 h at 37 °C with 5% CO2. After incubation, medium supplemented with compound was removed from the wells and replaced with 100 µL of fresh culture medium. Then, 10 µL of 12 mM (3-(4,5-dimethylthiazol-2-yl)-2,5-diphenyltetrazolium bromide (MTT) stock reagent (CyQUANT MTT cell proliferation kit; Thermofisher Scientific) was added to each well. After labeling the cells with the MTT reagent, all but 25 µL of medium was removed from the wells, and 50 µL of DMSO was added to each well and mixed thoroughly and cells were incubated at 37 °C with 5% CO2 for 10 min. After incubation, wells were mixed again and using a SPECTRAmax5 microplate reader, absorbance was read at 540 nm. Cells were treated with 125 µg/mL mitomycin C (Fisher Scientific) to serve as a positive control and 2% DMSO as a negative control. […] All compounds were tested in two independent experiments in triplicate and cell viability was expressed as a percent of the negative control.
Background: Formazan colour is commonly taken as a measure of viable cells.

A further data set in a line: MTT cytotoxicity testing. The following applies: human, HEP G2 cells (human liver epithelial cells). The procedure:
as §1, §2

Data set [2] concerns S. aureus clinical isolate USA300. The data set is described as follows: Murine corneal infection (keratitis) model. The format is in vivo, Staphylococcus aureus. The following applies: BALB/c mice, 50 µM topical 5 µL every 6 h for 48 h; not statistically different (t-test). The procedure: Corneal infections were induced by inoculating corneal scratches with S. aureus, eyes were treated with RNP0012 6 h later and every 6 h thereafter for 48 h and bacterial burden was enumerated.
In vivo efficacy studies utilizing a murine model of corneal S. aureus infection were performed as previously described. Female BALB/c mice four to six weeks of age were acquired from Charles River ([…], MA, USA) and housed according to the approved University of Rochester Medical Center Council on Animal Research (UCAR) protocol. S. aureus clinical isolate USA300 was grown overnight on both MH agar and MH broth at 37 °C. Broth cultures were centrifuged at 2000× g for 10 min at 4 °C and the pellet was resuspended in 1× sterile PBS in a volume equivalent to the starting volume. The mice were anesthetized with 100 mg kg^−1 ketamine (Par Pharmaceutica; Chestnut Ridge, NY, USA) and 10 mg kg^−1 xylazine (Akorn, Inc.; Lake Forest, IL, USA) and 0.5% proparacaine (Akorn, Inc.) was applied to the right eye of each mouse. Excess proparacaine was blotted from the ocular surface. Using a 27-gauge needle, inoculated with a single colony of S. aureus USA300, three 2 mm scratches were made across the right cornea. […] The animals were euthanized after 48 h and whole eyes were excised, homogenized, and plated to quantitate viable S. aureus colonies present. […]

For orientation: viability means a read-out of living cells in per cent, often relative to untreated cells. A lower viability goes with a greater loss of cells.

For `O=C(Nc1ccc(F)cc1)c1c(NC(=O)C(F)(F)F)sc2c1CCCCC2` [RNP0009], in data set [1], the “HEP G2 toxicity against 70% viability cut-off (in words)” value was “did not exhibit toxicity that was beyond the 70% cut-off criteria”.
In the data set “MTT cytotoxicity testing”, `O=C(Nc1ccc(C(F)(F)F)cc1)c1c(NC(=O)C(F)(F)F)sc2c1CCCCC2` [RNP0012] displayed a viability at 50 µM of 68%. The Therapeutic index in data set [1] (human) is ~ 260. Further, in data set [1] (human, 50 µM), the “Fold of the 50 µM cytotoxicity dose above the MIC against S. aureus” value amounted to 263 fold. Besides, the “CFU reduction in comparison to vehicle treated animals” value in data set [2] stood at 1.2 log CFU.
Take `O=C(Nc1cccc(F)c1)c1c(NC(=O)C(F)(F)F)sc2c1CCCCC2` [RNP0008]: the “HEP G2 toxicity against 70% viability cut-off (in words)” value in data set [1] was “did not exhibit toxicity that was beyond the 70% cut-off criteria”.
Take `Cc1cccc(NC(=O)c2c(NC(=O)C(F)(F)F)sc3c2CCCCC3)c1` [RNP0010]: the “HEP G2 toxicity against 70% viability cut-off (in words)” value in data set [1] was “did not exhibit toxicity that was beyond the 70% cut-off criteria”.
